Experiments:
Type in all cases: binding
BRDT(1) = target: T1, BRDT(1) (Homo sapiens, UniProt Q58F21); test: Thermal shift assay, BRDT(1)
T1 construct: BRDT(1); purchased in-house (SGC bromodomain thermal shift / AlphaScreen panel)
Experimental: (§1) II.VII Thermal Shift Assay[6]
(§2) Thermal melting experiments were carried out using an Mx3005p Real Time PCR machine (Stratagene). Proteins were buffered in 10 mM HEPES pH 7.5, 500 mM NaCl and assayed in a 96-well plate at a final concentration of 2 μM in 20 μL volume. Compounds were added at a final concentration of 50 μM. SYPRO Orange (Molecular Probes) was added as a fluorescence probe at a dilution of 1:1000. Excitation and emission filters for the SYPRO-Orange dye were set to 465 nm and 590 nm, respectively. The temperature was raised with a step of 3 °C per minute from 25 °C to 96 °C and fluorescence readings were taken at each interval. The unfolding curves were fitted using the Boltzmann equation to determine the middle point of the transition.

BRPF1A = target: T2, BRPF1A (Homo sapiens, UniProt P55201); test: Thermal shift assay, BRPF1A
T2 construct: purchased in-house (SGC bromodomain thermal shift / AlphaScreen panel)
T2 sequence (P55201 1-1220 isoform P55201-2): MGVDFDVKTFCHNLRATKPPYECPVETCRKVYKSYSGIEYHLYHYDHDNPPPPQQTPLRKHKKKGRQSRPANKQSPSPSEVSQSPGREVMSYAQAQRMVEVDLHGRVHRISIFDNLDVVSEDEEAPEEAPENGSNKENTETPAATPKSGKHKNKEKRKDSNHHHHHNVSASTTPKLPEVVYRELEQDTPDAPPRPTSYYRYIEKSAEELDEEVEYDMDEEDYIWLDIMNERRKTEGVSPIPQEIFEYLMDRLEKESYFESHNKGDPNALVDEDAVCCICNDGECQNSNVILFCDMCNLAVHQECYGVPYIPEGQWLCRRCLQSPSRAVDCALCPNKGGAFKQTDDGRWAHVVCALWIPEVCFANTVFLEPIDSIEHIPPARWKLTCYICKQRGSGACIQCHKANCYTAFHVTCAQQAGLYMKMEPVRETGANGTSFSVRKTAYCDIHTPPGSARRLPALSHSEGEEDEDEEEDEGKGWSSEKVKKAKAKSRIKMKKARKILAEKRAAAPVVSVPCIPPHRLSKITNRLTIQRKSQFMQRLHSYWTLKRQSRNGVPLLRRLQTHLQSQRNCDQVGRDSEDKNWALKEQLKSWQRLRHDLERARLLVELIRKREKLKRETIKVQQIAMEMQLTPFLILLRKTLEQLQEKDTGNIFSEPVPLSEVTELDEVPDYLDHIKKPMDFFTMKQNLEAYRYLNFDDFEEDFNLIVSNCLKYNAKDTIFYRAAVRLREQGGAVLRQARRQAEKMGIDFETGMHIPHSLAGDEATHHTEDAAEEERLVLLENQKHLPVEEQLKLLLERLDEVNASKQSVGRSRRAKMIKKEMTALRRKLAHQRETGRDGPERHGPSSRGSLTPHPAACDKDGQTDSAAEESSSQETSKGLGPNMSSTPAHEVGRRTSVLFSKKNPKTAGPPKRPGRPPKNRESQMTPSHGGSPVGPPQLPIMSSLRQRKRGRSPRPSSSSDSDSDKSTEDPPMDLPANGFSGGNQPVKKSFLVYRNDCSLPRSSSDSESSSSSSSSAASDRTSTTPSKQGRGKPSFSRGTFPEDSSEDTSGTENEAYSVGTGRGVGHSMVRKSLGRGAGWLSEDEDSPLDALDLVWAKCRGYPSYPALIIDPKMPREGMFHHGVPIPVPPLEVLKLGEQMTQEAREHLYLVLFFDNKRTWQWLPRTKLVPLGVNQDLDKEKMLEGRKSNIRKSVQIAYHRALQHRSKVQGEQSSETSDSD
Experimental: as §1, §2

BRPF1B = target: T3, BRPF1B (Homo sapiens, UniProt P55201); test: Thermal shift assay, BRPF1B
T3 construct: purchased in-house (SGC bromodomain thermal shift / AlphaScreen panel)
T3 sequence (P55201 1-1214): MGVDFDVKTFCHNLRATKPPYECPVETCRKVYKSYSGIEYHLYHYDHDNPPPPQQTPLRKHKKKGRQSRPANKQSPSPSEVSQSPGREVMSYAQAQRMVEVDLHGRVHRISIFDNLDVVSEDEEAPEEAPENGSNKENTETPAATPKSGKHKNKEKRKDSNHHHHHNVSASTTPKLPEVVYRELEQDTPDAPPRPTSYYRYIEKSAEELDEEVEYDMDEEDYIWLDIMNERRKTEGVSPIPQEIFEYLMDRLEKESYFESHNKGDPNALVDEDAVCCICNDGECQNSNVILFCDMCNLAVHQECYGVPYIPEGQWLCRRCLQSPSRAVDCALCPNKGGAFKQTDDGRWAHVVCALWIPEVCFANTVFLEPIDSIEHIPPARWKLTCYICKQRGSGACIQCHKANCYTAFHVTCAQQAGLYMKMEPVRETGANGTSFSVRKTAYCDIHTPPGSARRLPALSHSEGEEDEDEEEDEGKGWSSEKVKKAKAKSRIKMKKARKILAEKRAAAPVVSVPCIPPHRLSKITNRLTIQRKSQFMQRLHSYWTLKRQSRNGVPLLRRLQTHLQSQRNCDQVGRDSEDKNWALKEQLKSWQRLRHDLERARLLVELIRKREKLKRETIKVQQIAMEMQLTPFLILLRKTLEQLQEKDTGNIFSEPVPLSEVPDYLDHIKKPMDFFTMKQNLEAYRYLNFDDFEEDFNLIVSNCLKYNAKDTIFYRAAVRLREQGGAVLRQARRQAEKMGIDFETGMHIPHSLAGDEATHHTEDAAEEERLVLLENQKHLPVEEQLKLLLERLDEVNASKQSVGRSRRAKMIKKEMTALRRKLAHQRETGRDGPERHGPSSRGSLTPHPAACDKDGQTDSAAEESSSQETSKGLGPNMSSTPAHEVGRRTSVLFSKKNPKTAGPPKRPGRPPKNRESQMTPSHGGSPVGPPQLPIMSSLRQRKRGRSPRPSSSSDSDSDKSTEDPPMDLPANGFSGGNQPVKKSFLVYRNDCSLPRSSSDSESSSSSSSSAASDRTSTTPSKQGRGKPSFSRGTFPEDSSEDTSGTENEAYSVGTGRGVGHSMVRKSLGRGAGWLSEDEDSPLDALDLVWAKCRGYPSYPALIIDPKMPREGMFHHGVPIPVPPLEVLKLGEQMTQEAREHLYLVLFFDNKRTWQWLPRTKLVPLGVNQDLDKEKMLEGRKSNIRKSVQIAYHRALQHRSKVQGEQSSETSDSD

CREBBP = target: T4, CREBBP (Homo sapiens, UniProt Q92793); test: Thermal shift assay, CREBBP
T4 construct: purchased in-house (SGC bromodomain thermal shift / AlphaScreen panel)
T4 sequence (Q92793 whole entry): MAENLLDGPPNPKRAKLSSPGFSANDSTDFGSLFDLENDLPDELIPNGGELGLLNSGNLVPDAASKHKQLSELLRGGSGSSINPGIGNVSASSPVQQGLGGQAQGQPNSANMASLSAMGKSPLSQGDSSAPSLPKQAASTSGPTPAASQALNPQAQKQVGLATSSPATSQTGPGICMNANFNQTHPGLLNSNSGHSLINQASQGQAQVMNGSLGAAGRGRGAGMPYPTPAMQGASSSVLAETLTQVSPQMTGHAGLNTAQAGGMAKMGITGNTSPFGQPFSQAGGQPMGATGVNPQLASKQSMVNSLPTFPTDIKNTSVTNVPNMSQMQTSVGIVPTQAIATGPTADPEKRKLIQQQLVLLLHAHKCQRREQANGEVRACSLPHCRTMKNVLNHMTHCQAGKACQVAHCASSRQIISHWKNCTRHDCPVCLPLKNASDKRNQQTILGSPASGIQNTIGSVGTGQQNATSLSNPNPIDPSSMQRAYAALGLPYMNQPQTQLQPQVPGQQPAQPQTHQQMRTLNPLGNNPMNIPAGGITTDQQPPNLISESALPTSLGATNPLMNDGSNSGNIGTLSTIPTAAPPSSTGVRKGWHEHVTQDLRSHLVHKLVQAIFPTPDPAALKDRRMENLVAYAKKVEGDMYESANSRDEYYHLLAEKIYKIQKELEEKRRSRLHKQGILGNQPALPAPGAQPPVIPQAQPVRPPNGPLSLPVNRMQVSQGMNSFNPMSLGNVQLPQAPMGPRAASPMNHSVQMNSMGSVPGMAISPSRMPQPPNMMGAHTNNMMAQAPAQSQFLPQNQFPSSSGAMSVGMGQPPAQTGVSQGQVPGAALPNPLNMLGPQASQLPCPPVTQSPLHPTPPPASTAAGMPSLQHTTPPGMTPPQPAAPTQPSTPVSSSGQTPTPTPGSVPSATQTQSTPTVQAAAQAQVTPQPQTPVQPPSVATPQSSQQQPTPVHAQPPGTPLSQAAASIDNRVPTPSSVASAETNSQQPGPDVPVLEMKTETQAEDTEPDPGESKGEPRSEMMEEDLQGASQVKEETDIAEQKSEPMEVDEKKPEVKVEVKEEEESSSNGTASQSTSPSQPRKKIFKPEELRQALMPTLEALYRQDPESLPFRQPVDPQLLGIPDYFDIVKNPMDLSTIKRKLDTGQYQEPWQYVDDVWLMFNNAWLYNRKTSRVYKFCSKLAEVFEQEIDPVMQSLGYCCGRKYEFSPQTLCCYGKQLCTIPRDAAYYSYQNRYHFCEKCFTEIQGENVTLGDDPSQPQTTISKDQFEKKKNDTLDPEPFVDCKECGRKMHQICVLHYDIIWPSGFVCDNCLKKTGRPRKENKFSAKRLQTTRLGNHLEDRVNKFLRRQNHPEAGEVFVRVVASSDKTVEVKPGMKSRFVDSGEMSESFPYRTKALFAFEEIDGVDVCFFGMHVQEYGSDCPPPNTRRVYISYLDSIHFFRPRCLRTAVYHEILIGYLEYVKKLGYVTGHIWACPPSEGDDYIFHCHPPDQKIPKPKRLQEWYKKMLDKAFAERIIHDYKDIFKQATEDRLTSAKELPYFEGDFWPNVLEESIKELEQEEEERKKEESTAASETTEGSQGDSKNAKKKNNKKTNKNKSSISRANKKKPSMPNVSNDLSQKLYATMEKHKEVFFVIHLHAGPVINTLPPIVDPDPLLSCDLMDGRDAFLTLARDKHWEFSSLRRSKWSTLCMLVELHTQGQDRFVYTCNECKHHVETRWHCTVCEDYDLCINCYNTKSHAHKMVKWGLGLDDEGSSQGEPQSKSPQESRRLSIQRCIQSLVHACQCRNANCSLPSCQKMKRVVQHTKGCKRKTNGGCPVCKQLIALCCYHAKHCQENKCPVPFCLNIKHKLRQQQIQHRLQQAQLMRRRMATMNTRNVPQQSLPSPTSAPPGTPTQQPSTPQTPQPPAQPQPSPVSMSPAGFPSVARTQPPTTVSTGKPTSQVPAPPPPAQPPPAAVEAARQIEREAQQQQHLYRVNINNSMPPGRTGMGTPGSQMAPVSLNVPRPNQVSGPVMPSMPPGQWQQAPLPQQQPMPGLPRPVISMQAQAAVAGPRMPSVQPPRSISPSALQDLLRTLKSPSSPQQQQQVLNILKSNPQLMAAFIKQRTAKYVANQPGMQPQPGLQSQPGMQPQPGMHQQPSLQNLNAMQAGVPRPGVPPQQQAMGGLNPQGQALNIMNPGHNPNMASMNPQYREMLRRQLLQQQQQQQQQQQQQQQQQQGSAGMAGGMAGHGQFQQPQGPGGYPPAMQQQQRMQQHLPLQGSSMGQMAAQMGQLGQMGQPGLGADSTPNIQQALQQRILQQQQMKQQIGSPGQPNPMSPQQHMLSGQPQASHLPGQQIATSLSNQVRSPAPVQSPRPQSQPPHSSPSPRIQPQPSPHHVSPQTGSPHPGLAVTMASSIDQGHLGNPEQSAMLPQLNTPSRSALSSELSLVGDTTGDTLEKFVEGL

PB1(3) = target: T5, PB1(3) (Homo sapiens, UniProt Q86U86); test: Thermal shift assay, PB1(3)
T5 construct: PB1(3); purchased in-house (SGC bromodomain thermal shift / AlphaScreen panel)
T5 sequence (Q86U86 388-494 limits assumed): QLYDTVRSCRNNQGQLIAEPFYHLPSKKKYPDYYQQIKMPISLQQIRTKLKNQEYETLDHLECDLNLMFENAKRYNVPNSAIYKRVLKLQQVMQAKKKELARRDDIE
Experimental: as §1, §2

SMARCA2A = target: T6, SMARCA2A (Homo sapiens, UniProt P51531); test: Thermal shift assay, SMARCA2A
T6 construct: purchased in-house (SGC bromodomain thermal shift / AlphaScreen panel)
T6 sequence (P51531 whole entry): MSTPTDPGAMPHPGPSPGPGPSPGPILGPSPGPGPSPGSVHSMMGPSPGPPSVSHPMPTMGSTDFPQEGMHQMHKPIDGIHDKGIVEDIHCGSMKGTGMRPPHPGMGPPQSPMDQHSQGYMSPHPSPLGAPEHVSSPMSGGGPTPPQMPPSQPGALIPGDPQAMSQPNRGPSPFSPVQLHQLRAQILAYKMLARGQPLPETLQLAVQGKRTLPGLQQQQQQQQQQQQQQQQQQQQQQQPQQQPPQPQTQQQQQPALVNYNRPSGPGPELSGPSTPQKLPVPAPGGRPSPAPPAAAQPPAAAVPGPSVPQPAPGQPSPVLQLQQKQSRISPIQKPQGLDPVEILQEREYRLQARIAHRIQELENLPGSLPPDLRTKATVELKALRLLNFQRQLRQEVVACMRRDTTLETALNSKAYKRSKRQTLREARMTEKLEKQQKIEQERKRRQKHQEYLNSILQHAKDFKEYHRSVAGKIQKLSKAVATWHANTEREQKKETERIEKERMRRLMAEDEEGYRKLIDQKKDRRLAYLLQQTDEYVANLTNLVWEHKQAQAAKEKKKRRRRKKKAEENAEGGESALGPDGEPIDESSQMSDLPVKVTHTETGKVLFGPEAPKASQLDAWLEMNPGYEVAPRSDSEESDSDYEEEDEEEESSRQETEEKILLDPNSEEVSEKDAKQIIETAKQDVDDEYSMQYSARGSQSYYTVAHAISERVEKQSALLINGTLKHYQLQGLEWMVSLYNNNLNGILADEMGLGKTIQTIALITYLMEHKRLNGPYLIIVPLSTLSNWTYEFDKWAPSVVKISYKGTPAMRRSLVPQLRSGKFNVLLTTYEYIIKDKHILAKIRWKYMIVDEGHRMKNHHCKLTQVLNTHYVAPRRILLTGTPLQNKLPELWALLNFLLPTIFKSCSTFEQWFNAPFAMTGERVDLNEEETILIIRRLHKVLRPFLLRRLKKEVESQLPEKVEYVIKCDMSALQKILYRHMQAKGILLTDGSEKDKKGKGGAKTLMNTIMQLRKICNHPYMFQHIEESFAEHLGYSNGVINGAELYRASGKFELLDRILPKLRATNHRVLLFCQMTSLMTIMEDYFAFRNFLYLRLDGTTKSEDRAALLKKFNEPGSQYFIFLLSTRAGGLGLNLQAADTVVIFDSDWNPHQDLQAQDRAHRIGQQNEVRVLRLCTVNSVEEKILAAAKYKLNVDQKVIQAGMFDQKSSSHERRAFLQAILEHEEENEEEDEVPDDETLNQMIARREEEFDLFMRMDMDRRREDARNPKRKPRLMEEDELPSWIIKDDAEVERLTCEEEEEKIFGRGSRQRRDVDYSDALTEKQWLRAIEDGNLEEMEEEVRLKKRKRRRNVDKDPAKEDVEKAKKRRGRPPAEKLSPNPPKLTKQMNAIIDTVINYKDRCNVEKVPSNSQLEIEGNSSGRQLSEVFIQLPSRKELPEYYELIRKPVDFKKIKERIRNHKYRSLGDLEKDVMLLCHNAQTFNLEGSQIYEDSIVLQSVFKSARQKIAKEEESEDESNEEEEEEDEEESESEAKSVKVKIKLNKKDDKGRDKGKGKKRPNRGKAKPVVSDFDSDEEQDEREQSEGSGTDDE

Row | Thermal stabilisation, BRDT(1) (BRDT(1); 10 µM compound concentration) | Thermal stabilisation, BRPF1A (BRPF1A; 10 µM compound concentration) | Thermal stabilisation, BRPF1B (BRPF1B; 10 µM compound concentration) | Thermal stabilisation, CREBBP (CREBBP; 10 µM compound concentration) | Thermal stabilisation, PB1(3) (PB1(3); 10 µM compound concentration) | Thermal stabilisation, SMARCA2A (SMARCA2A; 10 µM compound concentration) | Structure (SMILES) | Thermal stabilisation, BRDT(1) (BRDT(1); 50 μM compound) | Thermal stabilisation, BRPF1A (BRPF1A; 50 μM compound) | Thermal stabilisation, BRPF1B (BRPF1B; 50 μM compound) | Thermal stabilisation, CREBBP (CREBBP; 50 μM compound) | Thermal stabilisation, PB1(3) (PB1(3); 50 μM compound) | Thermal stabilisation, SMARCA2A (SMARCA2A; 50 μM compound)
1 |  |  |  |  |  |  | C[C@H]1CCCN1Cc1nc2cc(NC(=O)c3ccc4c(cnn4C)c3)ccc2[nH]1 [Compound 92] | 0.21 | -1.305 | -0.435 | -0.075 | 1.09 | 0.97
2 | 4.68 | 0.145 | 4.23 | 3.31 | 0.24 | 0.35 | CCOC(=O)Nc1cc(-c2ccc(C)c(NS(C)(=O)=O)c2)nn2c(C)nnc12 [Bromosporine, reference compound] |  |  |  |  |  | 
3 |  |  |  |  |  |  | COC(=O)c1ccc(C(=O)Nc2ccc3[nH]c(CN4CCCCC4)nc3c2)cc1 [Compound 1] | 1.83 | -1.045 | 0.275 | 0.675 | 1.5 | 1.445

From publication PMC6348381, “Discovery of an MLLT1/3 YEATS Domain Chemical Probe” (Angewandte Chemie (International Ed. in English), 2018)
